According to patent US8859496B2, “Pharmaceutical composition using connective-tissue growth factor” (Postech Academy-Industry Foundation, priority 2010, dated 2014):

What was measured:
HUVECs [1] = experiment: HUVEC wound migration assay; format: cell-based, human; conditions: compared to Luciferase siRNA control
Experimental: Specifically, HUVECs inoculated on a 60-mm culture dish to confluence were wounded with the end of a pipette, and treated with linker polypeptide (10^−1˜10^2 nM) or recombinant CTGF (recombinant human CTGF, rhCTGF; BioVendor R&D, NC, USA) (10^1 or 10^2 nM) in Medium 199 to which 1% serum and 1 mM thymidine were added. After culturing 16 hours, the number of cells that migrated over a reference line was counted to quantify the degree of migration, and the cells were photographed with 50× magnification.
(§1) First, 20 ng/ml of VEGF-A was administered to HUVECs, the degree of cell proliferation, cell migration, or tube formation was confirmed by the <Experiment method 9>, and the results are shown in FIGS. 22 to 24. At this time, FPRL1 antagonist WRW4 was additionally added.

HUVECs [2] = experiment: HUVEC tube formation on Matrigel; format: cell-based, human; conditions: compared to Luciferase siRNA control
Experimental: Meanwhile, to analyze tube formation, HUVECs were inoculated on the previously polymerized Matrigel (BD Biosciences) layer together with a certain amount of linker polypeptide, rhCTGF or VEGF-A165. After culturing for 18 hours, the shape of the cells was observed by phase-contrast microscopy, and photographed with 40× magnification. By measuring the length of tubes 5 times in LPF (low-power fields) randomly selected from each well using image-Pro Plus v4.5 (Media Cybernetics, Silver Spring, Md.), the degree of tube formation was quantified.
as §1

human FPRL1 = experiment: siRNA inhibition of FPRL1 expression in HUVECs (RT-PCR); format: cell-based; conditions: siRNA 20 nM
Experimental: To inhibit transcription of human FPRL1 using siRNA, siRA to FPRL1 (sense: UUCACAUCGUGGUGGACAUdTdT (SEQ ID NO. 3), anti-sense: AUGUCCACCACGAUGUGAAdTdT (SEQ ID NO. 4)) was used. As result of BLAST search of the siRNA sequence, it was confirmed that there is no significant similarity to other sequences in the database. […] HUVECs were used for siRNA transfection. The cells were transfected to the final concentration of 20 nM with FPRL1 siRNA (SEQ ID NO. 3 and SEQ ID NO. 4) or transfected with luciferase siRNA (SEQ ID NO. 11 and SEQ ID NO. 12) as control. At this time, a lipofectamine reagent (Invitrogen Life Technologies) was used according to the manufacturer's instruction. The cells were washed with serum-free medium, and cultured with the transfection mixture to which medium containing 20% (v/v) FBS was added for 4.5 hours. 24 hours and 48 hours after culturing, the cells were collected, and the degree of FPRL1 expression was confirmed by RT-PCR analysis.
All RNAs were separated from the transfected HUVECs according to the manufacturer's instruction using commercially available TRI reagent (Molecular Research Center). First-strand cDNA was synthesized according to the manufacturer's instruction using 3 ug of each DNA-free total RNA sample and oligo(dT)15 and Moloney murine leukemia virus reverse transcriptase (Promega, Wis., USA). […]

FPRL1 = biological target: T1, FPRL1 (Homo sapiens, UniProt P25090); experiment: ERK phosphorylation in FPRL1/RBL cells (immunoblot); format: cell-based; conditions: vector/RBL, FPR/RBL or FPRL1/RBL cells; conditioned medium or VEGF-A 10 ng/ml 8 hours; WKYMVm 10 nM
T1 construct: expressed in transfected cells; host or cells: rat basophil leukemia RBL-2H3 cells, kept under G418
T1 sequence (P25090 1-351): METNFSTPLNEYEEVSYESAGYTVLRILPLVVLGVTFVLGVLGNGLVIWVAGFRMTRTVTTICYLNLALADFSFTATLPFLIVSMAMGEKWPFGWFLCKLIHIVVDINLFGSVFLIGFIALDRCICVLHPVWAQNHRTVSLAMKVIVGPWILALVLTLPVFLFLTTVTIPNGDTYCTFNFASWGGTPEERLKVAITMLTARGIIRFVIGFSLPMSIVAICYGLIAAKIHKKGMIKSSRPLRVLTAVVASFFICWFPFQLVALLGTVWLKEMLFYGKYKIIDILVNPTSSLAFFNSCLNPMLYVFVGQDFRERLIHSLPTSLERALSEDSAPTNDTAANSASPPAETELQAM
Experimental: Vector/RBL cells, FPR/RBL cells, FPRL1/RBL cells, and HUVECs were cultured to confluence, and serum-starved. The stimulated cells (1×10^5 cells) were washed with PBS twice, dissolved in 1 ml of sample buffer (50 mM Tris-HCl, 100 mM NaCl, 0.1% SDS, 1% Nonidet P-40, 50 mM NaF, 1 mM Na3VO4, 1 μg/ml aprotinin, 1 μg/ml pepstatin, and 1 μg/ml leupeptin), heated at 95° C. for 30 seconds, separated with SDS-PAGE, and then, transferred to a nitrocellulose film. Immunoblot was conducted using anti-phospho-ERK (extracellular signal regulated kinase)1/2 (Thr^202/Tyr^204)(Cell Signaling Technology, Beverly, Mass., USA), anti-ERK1/2 (Cell Signaling Technology, Beverly, Mass., USA), anti-CTGF (Abcam, Cambridge, Mass., USA), anti-Actin (Sigma, St. Louis, Mo., USA), or anti-Flag (Sigma, St. Louis, Mo., USA) antibody, and then, the film was visualized with a chemiluminescence substrate (Amersham Pharmacia).
To confirm this, the inventors obtained conditioned medium (CM) in HUVEC treated with VEGF-A, and FPRL1-overexpressing cells FPRL1/RBL were treated therewith in the concentration of 10 ng/ml or 50 ng/ml for 8 hours. At this time, as positive control, FPRL1 agonistic peptide WKYMVm (Trp-Lys-Tyr-Met-Val-D-Met, SEQ ID NO. 1) was treated with 10 nM.
After the treatment, immunoblot was conducted on cell lysate that was transferred to a nitrocellulose film with anti-phospho ERK (extracellular signal regulated kinase)1/2 and anti-ERK1/2 antibody (Cell Signaling Technology, Beverly, Mass., USA), and then, the film was visualized with a chemiluminescence substrate (Amersham Pharmacia), and the results are shown in FIG. 1.
Meanwhile, the above described vector/RBL, FPR/RBL, or FPRL1/RBL cells were respectively treated with the above conditioned medium or VEGF-A at the concentration of 10 ng/ml for 8 hours, and positive control was treated with 10 nM of agonistic peptide WKYMVm (SEQ ID NO. 1).
As described in the <Experiment method 5>, FPRL1/RBL cells were treated with 40 ug of the HPLC fraction of the conditioned medium for 5 minutes, and the result confirming whether ERK phosphorylation occurred as described in the <Experiment result 1> was shown in FIG. 3.
To confirm whether the purified proteins induce ERK phosphorylation in FPRL1/RBL cells, immunoblot was conducted as described in the <Experiment result 1>, and the results are shown in FIG. 9.
ERK phosphorylation induction of CTGF linker polypeptide was compared to recombinant human CTGF (rhCTGF). Specifically, FPRL1/RBL cells were treated with CTGF linker polypeptide and rhCTGF for 5 minutes at various concentrations, ERK phosphorylation was measured, and the results are shown in FIG. 11. […]

Substance | effect of siRNA on HUVEC cell migration induced by VEGF-A (HUVECs [1]) | effect of siRNA on HUVEC tube formation induced by VEGF-A (HUVECs [2]) | FPRL1 expression after siRNA (human FPRL1) | ERK phosphorylation, specificity for FPRL1 (FPRL1)
FPRL1 siRNA: sense: UUCACAUCGUGGUGGACAUdTdT (SEQ ID NO. 3), anti-sense: AUGUCCACCACGAUGUGAAdTdT (SEQ ID NO. 4) (dTdT overhangs, chemistry not fully specified) | cell migration or tube formation induced by VEGF-A is inhibited | cell migration or tube formation induced by VEGF-A is inhibited | FPRL1 expression is inhibited | 
Luciferase siRNA: control siRNA, sense: CGUACGCGGAAUACUUCGAdTdT (SEQ ID NO. 11), anti-sense: UCGAAGUAUUCCGCGUACGdTdT (SEQ ID NO. 12) (dTdT overhangs, chemistry not fully specified) |  |  | FPRL1 expression is not inhibited | 
Trp-Lys-Tyr-Met-Val-D-Met [WKYMVm] |  |  |  | induce ERK phosphorylation only in FPRL1-overexpressing FPRL1/RBL cells
